31 compounds from patent US9586951B2 (FUJIFILM Corporation, priority 2013, dated 2017) can be followed below.

Each structure is given as a SMILES string.

The test deals with T1, ATM (Homo sapiens, UniProt Q13315).
T1 construct: detecting phosphorylation of Chk2 in a human non-small cell lung cancer cell line NCI-H460 (ATCC company); host or cells: NCI-H460 human non-small cell lung cancer cells
T1 sequence (Q13315 whole entry): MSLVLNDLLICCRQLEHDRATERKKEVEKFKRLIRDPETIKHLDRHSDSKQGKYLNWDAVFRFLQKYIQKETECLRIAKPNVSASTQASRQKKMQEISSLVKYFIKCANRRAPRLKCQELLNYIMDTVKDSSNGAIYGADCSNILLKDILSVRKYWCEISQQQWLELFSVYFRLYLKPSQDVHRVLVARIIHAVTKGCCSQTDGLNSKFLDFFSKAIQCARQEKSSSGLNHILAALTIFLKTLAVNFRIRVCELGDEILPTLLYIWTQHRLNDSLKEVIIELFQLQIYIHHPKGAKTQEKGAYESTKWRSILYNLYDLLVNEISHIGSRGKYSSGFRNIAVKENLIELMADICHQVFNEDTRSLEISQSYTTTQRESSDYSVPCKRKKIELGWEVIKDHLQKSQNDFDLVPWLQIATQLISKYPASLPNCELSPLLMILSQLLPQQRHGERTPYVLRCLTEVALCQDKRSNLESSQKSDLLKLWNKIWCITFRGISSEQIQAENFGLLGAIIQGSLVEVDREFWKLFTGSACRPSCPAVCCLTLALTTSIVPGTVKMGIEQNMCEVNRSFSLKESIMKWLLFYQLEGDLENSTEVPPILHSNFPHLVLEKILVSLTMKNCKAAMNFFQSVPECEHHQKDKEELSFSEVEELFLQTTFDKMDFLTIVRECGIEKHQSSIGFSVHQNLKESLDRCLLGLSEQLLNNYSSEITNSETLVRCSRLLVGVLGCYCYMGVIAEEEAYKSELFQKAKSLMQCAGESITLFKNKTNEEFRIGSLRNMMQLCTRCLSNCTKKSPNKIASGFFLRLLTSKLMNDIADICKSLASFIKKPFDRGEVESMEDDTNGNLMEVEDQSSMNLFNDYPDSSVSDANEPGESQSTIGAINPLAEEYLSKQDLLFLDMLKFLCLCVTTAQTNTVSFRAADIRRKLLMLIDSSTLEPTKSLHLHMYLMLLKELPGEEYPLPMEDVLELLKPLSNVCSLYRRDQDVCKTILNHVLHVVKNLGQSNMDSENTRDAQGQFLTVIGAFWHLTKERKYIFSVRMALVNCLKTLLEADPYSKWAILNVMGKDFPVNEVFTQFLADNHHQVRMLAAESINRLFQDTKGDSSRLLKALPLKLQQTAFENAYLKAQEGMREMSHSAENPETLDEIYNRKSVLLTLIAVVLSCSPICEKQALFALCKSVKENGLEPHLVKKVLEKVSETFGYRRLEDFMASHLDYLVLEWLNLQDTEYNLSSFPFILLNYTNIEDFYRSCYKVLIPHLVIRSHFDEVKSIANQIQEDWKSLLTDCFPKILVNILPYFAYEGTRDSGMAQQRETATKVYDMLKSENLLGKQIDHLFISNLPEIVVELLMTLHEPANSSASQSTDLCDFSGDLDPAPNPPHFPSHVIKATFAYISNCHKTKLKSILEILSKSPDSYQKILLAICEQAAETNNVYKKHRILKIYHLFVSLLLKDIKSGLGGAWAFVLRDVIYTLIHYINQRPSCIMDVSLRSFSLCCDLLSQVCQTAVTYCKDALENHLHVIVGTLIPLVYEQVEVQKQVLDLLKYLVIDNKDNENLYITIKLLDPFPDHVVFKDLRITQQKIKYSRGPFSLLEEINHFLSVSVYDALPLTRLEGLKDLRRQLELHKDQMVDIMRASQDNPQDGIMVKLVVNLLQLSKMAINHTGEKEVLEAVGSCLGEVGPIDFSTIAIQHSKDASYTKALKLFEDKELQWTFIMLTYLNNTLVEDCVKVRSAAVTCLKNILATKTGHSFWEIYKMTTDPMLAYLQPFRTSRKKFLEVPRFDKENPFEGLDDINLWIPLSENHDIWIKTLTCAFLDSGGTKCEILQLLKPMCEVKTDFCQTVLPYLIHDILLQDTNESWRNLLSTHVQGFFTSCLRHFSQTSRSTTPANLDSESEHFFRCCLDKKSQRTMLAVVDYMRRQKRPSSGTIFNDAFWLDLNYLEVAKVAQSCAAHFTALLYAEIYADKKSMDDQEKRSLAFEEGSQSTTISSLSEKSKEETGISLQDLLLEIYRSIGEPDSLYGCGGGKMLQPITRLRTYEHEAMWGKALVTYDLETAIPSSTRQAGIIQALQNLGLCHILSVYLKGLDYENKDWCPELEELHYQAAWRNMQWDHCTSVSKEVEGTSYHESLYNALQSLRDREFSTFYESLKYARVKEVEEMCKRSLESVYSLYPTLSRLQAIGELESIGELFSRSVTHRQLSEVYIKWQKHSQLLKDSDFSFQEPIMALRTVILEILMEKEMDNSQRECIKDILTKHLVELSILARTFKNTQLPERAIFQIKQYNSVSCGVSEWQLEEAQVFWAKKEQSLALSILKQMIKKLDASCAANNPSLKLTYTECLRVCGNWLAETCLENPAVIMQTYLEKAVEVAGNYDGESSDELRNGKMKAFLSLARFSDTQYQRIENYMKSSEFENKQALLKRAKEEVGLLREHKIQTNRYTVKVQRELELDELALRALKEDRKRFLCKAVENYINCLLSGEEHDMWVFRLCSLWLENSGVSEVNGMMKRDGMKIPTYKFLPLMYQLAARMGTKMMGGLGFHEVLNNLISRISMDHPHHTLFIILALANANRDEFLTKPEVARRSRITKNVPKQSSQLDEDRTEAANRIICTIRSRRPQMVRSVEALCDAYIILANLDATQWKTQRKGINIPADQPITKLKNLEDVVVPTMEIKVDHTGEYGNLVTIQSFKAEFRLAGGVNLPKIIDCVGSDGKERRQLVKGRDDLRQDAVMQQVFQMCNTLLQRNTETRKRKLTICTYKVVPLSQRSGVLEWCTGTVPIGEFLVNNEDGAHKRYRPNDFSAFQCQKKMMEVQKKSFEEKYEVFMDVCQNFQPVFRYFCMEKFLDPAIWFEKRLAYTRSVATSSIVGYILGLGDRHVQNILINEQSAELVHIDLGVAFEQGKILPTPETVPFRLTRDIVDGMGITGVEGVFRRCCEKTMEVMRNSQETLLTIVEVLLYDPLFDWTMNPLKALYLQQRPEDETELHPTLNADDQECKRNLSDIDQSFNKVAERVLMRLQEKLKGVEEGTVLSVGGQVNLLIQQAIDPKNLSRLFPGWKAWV
The experiment in a line: ATM inhibition test (phosphorylation of Chk2 generated by ionizing radiation, AlphaScreen SureFire). The format is cell-based. To be noted: phosphorylated Chk2 in NCI-H460 cells, ionizing radiation 8Gy, 1 hour after test compound treatment; read-out: ATM inhibitory activity. In short, it runs like this: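 Human NCI-H460 lung cancer cells were treated with compound for 1 h, then irradiated at 8Gy and incubated 1 h at 37° C. Phospho-Chk2 was quantified by AlphaScreen SureFire; inhibition % was normalised between irradiated untreated and non-irradiated untreated wells.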
With `Cc1cccc(C(CCN2CCCC2)Nc2ccc3c(c2)Sc2cccc(-c4cc(N5CCOCC5)cc(=O)[nH]4)c2S3)n1` (stereo not shown) [Example 1-34-6, 6-(7-((1-(6-Methylpyridin-2-yl)-3-(pyrrolidin-1-yl)propyl)amino)thianthren-1-yl)-4-morpholino pyridin-2(1H)-one], the IC50 was in the range of 100 to 500 nM.

Regarding `CC(CN1CCC(Nc2ccc3c(c2)Cc2cccc(-c4cc(N5CCOCC5)cc(=O)[nH]4)c2O3)CC1)c1ccccc1` (stereo not shown) [Example 2-28-37, 4-Morpholino-6-(7-((1-(2-phenylpropyl)piperidin-4-yl)amino)-9H-xanthen-4-yl) pyridin-2(1H)-one], the IC50 lay in the range of 100 to 500 nM.

`Cc1ccnc(C(C)Nc2ccc3c(c2)Cc2cccc(-c4cc(N5CCOCC5)cc(=O)[nH]4)c2O3)n1` (stereo not shown) [Example 2-14-79, 6-(7-((1-(4-Methylpyrimidin-2-yl)ethyl)amino)-9H-xanthen-4-yl)-4-morpholino pyridin-2(1H)-one]: the IC50 lay in the range of 100 to 500 nM.

For the compound `Cc1ccc(C(Nc2ccc3c(c2)Sc2cccc(-c4cc(N5CCOCC5)cc(=O)[nH]4)c2S3)C2CCCC2)nc1` (stereo not shown) [Example 1-12-125, 6-(7-((Cyclopentyl(5-methylpyridin-2-yl)methyl)amino)thianthren-1-yl)-4-morpholino pyridin-2(1H)-one], the IC50 was 100 to 500 nM.

Turning to `CC(Nc1ccc2c(c1)Sc1cccc(-c3cc(N4CCOCC4)cc(=O)[nH]3)c1S2)c1nccc(CO)n1` (stereo not shown) [Example 1-12-86, 6-(7-((1-(4-(Hydroxymethyl)pyrimidin-2-yl)ethyl)amino)thianthren-1-yl)-4-morpholino pyridin-2(1H)-one], the IC50 lay in the range of 100 to 500 nM.

Regarding `O=c1cc(N2CCOCC2)nc(-c2cccc3c2Oc2ccc(NCc4cc(Cl)ccn4)cc2C3)[nH]1` [Example 2-52-3, 2-(7-(((4-Chloropyridin-2-yl)methyl)amino)-9H-xanthen-4-yl)-6-morpholinopyrimidine-4(3H)-one], the IC50 lay within 100 to 500 nM.

As for `Cc1ccc(C(Nc2ccc3c(c2)Sc2cccc(-c4cc(N5CCOCC5)cc(=O)[nH]4)c2S3)[C@H]2CN(C)CCO2)nc1` (single isomer, unassigned) [Example 1-56-12], the IC50 was less than 100 nM.

As for `Cc1cnc(C(CCN(C)C)Nc2ccc3c(c2)Sc2cccc(-c4cc(N5CCOCC5)cc(=O)[nH]4)c2O3)cn1` (single isomer, unassigned) [Example 10-7, 6-(8-((3-(Dimethylamino)-1-(5-methylpyrazin-2-yl)propyl)amino)phenoxathiin-4-yl)-4-morpholinopyridin-2(1H)-one], the IC50 was less than 100 nM.

For the compound `Cc1ccc(C(Nc2ccc3c(c2)Sc2cccc(-c4cc(N5CCOCC5)cc(=O)[nH]4)c2S3)[C@H]2CCN(C)C2)nc1` (single isomer, unassigned) [Example 1-56-14], the IC50 was less than 100 nM.

Regarding `Cc1ccc(C(Nc2ccc3c(c2)Cc2cccc(-c4cc(N5CCOCC5)cc(=O)[nH]4)c2O3)[C@H]2CN(C)CCO2)nc1` (stereo partly drawn) [Example 2-67, 6-(7-((((R)-4-methylmorpholin-2-yl)(5-methylpyridin-2-yl)methyl)amino)-9H-xanthen-4-yl)-4-morpholinopyridin-2(1H)-one], the IC50 is less than 100 nM.

Turning to `Cn1cc(-c2cncc(CNc3ccc4c(c3)Sc3cccc(-c5cc(N6CCOCC6)cc(=O)[nH]5)c3O4)c2)cn1` [Example 4-4-11, 6-(8-(((5-(1-Methyl-1H-pyrazol-4-yl)pyridin-3-yl)methyl)amino)phenoxathiin-4-yl)-4-morpholino pyridin-2 (1H)-one], the IC50 lay in the range of 100 to 500 nM.

Consider `O=c1cc(N2CCOCC2)cc(-c2cccc3c2Sc2ccc(NC(CO)CN4CCCC4)cc2S3)[nH]1` (stereo not shown) [Example 1-37-3, 6-(7-((1-Hydroxy-3-(pyrrolidin-1-yl)propan-2-yl)amino)thianthren-1-yl)-4-morpholino pyridin-2(1H)-one], for which the IC50 is 500 to 2000 nM.

As to `CCOC(=O)C(C)Nc1ccc2c(c1)Sc1cccc(-c3cc(N4CCOCC4)cc(=O)[nH]3)c1S2` (stereo not shown) [Example 1-12-55, Ethyl 2-((6-(4-morpholino-6-oxo-1,6-dihydropyridin-2-yl)thianthren-2-yl)amino) propanoate], the IC50 fell in the range of 100 to 500 nM.

As to `CCC(Nc1ccc2c(c1)Sc1cccc(-c3cc(N4CCOCC4)cc(=O)[nH]3)c1S2)[C@H](CC)N1CCOCC1` (stereo partly drawn) [Example 1-21-4, 4-Morpholino-6-(7-(((4S)-4-morpholinohexan-3-yl)amino)thianthren-1-yl) pyridin-2(1H)-one], the IC50 is 100 to 500 nM.

As for `CN1CCCC(Nc2ccc3c(c2)Cc2cccc(-c4cc(N5CCOCC5)cc(=O)[nH]4)c2O3)C1` (stereo not shown) [Example 2-7-1, 6-(7-((1-methylpiperidin-3-yl)amino)-9H-xanthen-4-yl)-4-morpholinopyridin-2(1H)-one], the IC50 lay within 500 to 2000 nM.

As for `CCN(C)CCC(Nc1ccc2c(c1)Sc1cccc(-c3cc(N4CCOCC4)cc(=O)[nH]3)c1S2)c1cnc(C)cn1` (single isomer, unassigned) [Example 1-51-10, 6-(7-((3-(Ethyl(methyl)amino)-1-(5-methylpyrazin-2-yl)propyl)amino)thianthren-1-yl)-4-morpholino pyridin-2(1H)-one], the IC50 is less than 100 nM.

Consider `CC(CN1CCN(Cc2cccnc2)CC1)Nc1ccc2c(c1)Sc1cccc(-c3cc(N4CCOCC4)cc(=O)[nH]3)c1S2` (stereo not shown) [Example 1-15-3, 4-Morpholino-6-(7-((1-(4-(pyridin-3-ylmethyl)piperazin-1-yl)propan-2-yl)amino)thianthren-1-yl)pyridin-2(1H)-one], for which the IC50 is 100 to 500 nM.

On to `COc1cccnc1CNc1ccc2c(c1)Cc1cccc(-c3cc(N4CCOCC4)cc(=O)[nH]3)c1O2` [Example 2-14-8, 6-(7-(((3-Methoxypyridin-2-yl)methyl)amino)-9H-xanthen-4-yl)-4-morpholino pyridin-2(1H)-one], for which the IC50 lay in the range of 100 to 500 nM.

For `COCCN1CCCC(Nc2ccc3c(c2)Sc2cccc(-c4cc(N5CCOCC5)cc(=O)[nH]4)c2S3)C1` (stereo not shown) [Example 1-26-2, 6-(7-((1-(2-Methoxyethyl)piperidin-3-yl)amino)thianthren-1-yl)-4-morpholinopyridin-2(1H)-one], the IC50 is less than 100 nM.

`Cc1cnc(C(C)Nc2ccc3c(c2)Cc2cccc(-c4cc(N5CCOCC5)cc(=O)[nH]4)c2O3)cn1` (single isomer, unassigned) [Example 2-14-90-1, 6-(7-((1-(5-methylpyrazin-2-yl)ethyl)amino)-9H-xanthen-4-yl)-4-morpholinopyridin-2(1H)-one]: the IC50 was 500 to 2000 nM.

For the compound `O=c1cc(N2CCOCC2)cc(-c2cccc3c2Oc2ccc(NC4CCN(Cc5ccsc5)CC4)cc2C3)[nH]1` [Example 2-28-26, 4-Morpholino-6-(7-((1-(thiophen-3-ylmethyl)piperidin-4-yl)amino)-9H-xanthen-4-yl)pyridin-2(1H)-one], the IC50 lay within 100 to 500 nM.

`CC(Nc1ccc2c(c1)Cc1cccc(-c3cc(N4CCOCC4)cc(=O)[nH]3)c1O2)c1nccc(CF)n1` (single isomer, unassigned) [Example 2-14-94-2, 6-(7-((1-(4-(fluoromethyl)pyrimidin-2-yl)ethyl)amino)-9H-xanthen-4-yl)-4-morpholinopyridin-2(1H)-one]: the IC50 was 100 to 500 nM.

As to `Nc1ccc2c(c1)Cc1ccc(F)c(-c3cc(N4CCOCC4)cc(=O)[nH]3)c1O2` [Example 2-45, 6-(7-Amino-3-fluoro-9H-xanthen-4-yl)-4-morpholinopyridin-2(1H)-one], the IC50 lay within 100 to 500 nM.

`O=c1cc(N2CCOCC2)cc(-c2cccc3c2Oc2ccc(NC4CCN(Cc5cccs5)CC4)cc2C3)[nH]1` [Example 2-28-25, 4-Morpholino-6-(7-((1-(thiophen-2-ylmethyl)piperidin-4-yl)amino)-9H-xanthen-4-yl)pyridin-2(1H)-one]: the IC50 fell in the range of 100 to 500 nM.

Take `O=c1cc(N2CCOCC2)cc(-c2cccc3c2Oc2ccc(NCc4cncc(-c5cccnc5)c4)cc2S3)[nH]1` [Example 4-4-10, 6-(8-(([3,3′-Bipyridin)-5-ylmethyl)amino)phenoxathiin-4-yl)-4-morpholino pyridin-2(1H)-one]: the IC50 lay within 100 to 500 nM.

As to `CC(C)Oc1cncc(CNc2ccc3c(c2)Cc2cccc(-c4cc(N5CCOCC5)cc(=O)[nH]4)c2O3)c1` [Example 2-2-65, 6-(7-(((5-Isopropoxypyridin-3-yl)methyl)amino)-9H-xanthen-4-yl)-4-morpholino pyridin-2(1H)-one], the IC50 was 100 to 500 nM.

Turning to `CCNCC(Nc1ccc2c(c1)Sc1cccc(-c3cc(N4CCOCC4)cc(=O)[nH]3)c1S2)c1cccc(C)n1` (stereo not shown) [Example 1-34-1, 6-(7-((2-(ethylamino)-1-(6-methylpyridin-2-yl)ethyl)amino)thianthren-1-yl)-4-morpholinopyridin-2(1H)-one], the IC50 fell in the range of 100 to 500 nM.

Turning to `CC(C)(CN1CCOCC1)Nc1ccc2c(c1)Sc1cccc(-c3cc(N4CCOCC4)cc(=O)[nH]3)c1S2` [Example 1-46-2, 6-(7-((2-methyl-1-morpholinopropan-2-yl)amino)thianthren-1-yl)-4-morpholinopyridin-2(1H)-one], the IC50 lay in the range of 100 to 500 nM.

Consider `COc1cc(CNc2ccc3c(c2)Cc2ccnc(-c4cc(N5CCOCC5)cc(=O)[nH]4)c2O3)cnc1OC` [Example 2-41-10, 6-(7-(((5,6-Dimethoxypyridin-3-yl)methyl)amino)-5H-chromeno[2,3-c]pyridin-1-yl)-4-morpholino pyridin-2(1H)-one], for which the IC50 was in the range of 100 to 500 nM.

For the compound `CNc1cncc(CNc2ccc3c(c2)Cc2cccc(-c4cc(N5CCOCC5)cc(=O)[nH]4)c2O3)c1` [Example 2-21-4, 6-(7-(((5-(Methylamino)pyridin-3-yl)methyl)amino)-9H-xanthen-4-yl)-4-morpholino pyridin-2(1H)-one], the IC50 was in the range of 100 to 500 nM.

On to `CCOC(=O)CNc1ccc2c(c1)Cc1cccc(-c3cc(N4CCOCC4)cc(=O)[nH]3)c1O2` [Example 2-14-71, Ethyl 2-((5-(4-morpholino-6-oxo-1,6-dihydropyridin-2-yl)-9H-xanthen-2-yl)amino) acetate], for which the IC50 lay in the range of 100 to 500 nM.
